Here are results for three compounds from ChEMBL document CHEMBL1132139, “2-Naphthylcarbapenems: broad spectrum antibiotics with enhanced potency against MRSA” (1999).

In experiment [1] the test system is Staphylococcus aureus. The experiment can be described thus: Compound was evaluated for the anti-MRSA activity as MIC90. The experiment is classed as functional.
The subject of experiment [2] is Klebsiella. The experiment can be described thus: Compound was evaluated for the antibacterial activity against Klebsiella as fold improvement in activity with respect to imipenem. Format: functional.
Experiment [3] has as its system Escherichia coli. The experiment is described as follows: Compound was evaluated for the antibacterial activity against Escherichia coli as fold improvement in activity with respect to imipenem. The experiment is classed as functional.
The test system of experiment [4] is coagulase-negative Staphylococcus. The experiment is described as follows: Compound was evaluated for the anti-MRCNS activity as MIC50.
Experiment [5] concerns Enterobacter. The experiment can be described thus: Compound was evaluated for the antibacterial activity against Enterobacter as fold improvement in activity with respect to imipenem. The experiment is classed as functional.
The nature of experiment [6]: Compound was evaluated for the antibacterial activity against methicillin-resistant coagulase-negative staphylococci (MRCNS)as fold improvement in activity with respect to imipenem. The experiment is classed as functional, Staphylococcus […].
The subject of experiment [7] is Proteus. The experiment is described as follows: Compound was evaluated for the antibacterial activity against Proteus as fold improvement in activity with respect to imipenem. The experiment is classed as functional, Proteus sp.
Experiment [8] relates to Serratia. The experiment can be described thus: Compound was evaluated for the antibacterial activity against Serratia as fold improvement in activity with respect to imipenem. The experiment is classed as functional.
In experiment [9] the target is T1, Dipeptidase 1 (Sus scrofa) (UniProt P22412).
T1 sequence (whole entry): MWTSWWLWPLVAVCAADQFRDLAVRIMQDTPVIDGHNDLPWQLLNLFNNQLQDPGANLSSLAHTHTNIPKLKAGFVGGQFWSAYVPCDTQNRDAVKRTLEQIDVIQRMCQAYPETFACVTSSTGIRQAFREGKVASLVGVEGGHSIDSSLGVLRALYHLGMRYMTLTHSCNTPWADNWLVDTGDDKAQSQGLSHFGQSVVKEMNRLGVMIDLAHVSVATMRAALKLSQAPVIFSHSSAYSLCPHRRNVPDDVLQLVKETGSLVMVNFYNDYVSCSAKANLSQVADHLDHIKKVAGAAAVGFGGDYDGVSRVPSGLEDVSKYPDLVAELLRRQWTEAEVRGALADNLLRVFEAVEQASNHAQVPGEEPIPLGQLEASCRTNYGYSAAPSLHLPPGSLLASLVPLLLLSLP
The experiment is described as follows: Dehydropeptidase-1 susceptibility.

The subject of experiment [10] is Staphylococcus aureus. The experiment can be described thus: Compound was evaluated for the antibacterial activity against methicillin-sensitive Staphylococcus aureus (MSSA)as fold improvement in activity with respect to imipenem. Format: functional.
For experiment [11], the system named is Staphylococcus aureus. The experiment is described as follows: Compound was evaluated for the anti-MRSA activity as MIC50. Format: functional.
Experiment [12] deals with Pseudomonas aeruginosa. The experiment is described as follows: Compound was evaluated for the antibacterial activity against Pseudomonas aeruginosa as fold improvement in activity with respect to imipenem. The experiment is classed as functional.
The subject of experiment [13] is Staphylococcus aureus. The experiment is described as follows: Compound was evaluated for the antibacterial activity against methicillin-resistant Staphylococcus aureus (MRSA)as fold improvement in activity with respect to imipenem. Format: functional.
Experiment [14] relates to Enterococcus. The experiment is described as follows: Compound was evaluated for the antibacterial activity against Enterococcus as fold improvement in activity with respect to imipenem. Format: functional.
Experiment [15] has as its system Pseudomonas aeruginosa. The experiment is described as follows: Compound was evaluated for the antibacterial activity against Pseudomonas aeruginosa. The experiment is classed as functional.
Experiment [16] relates to Klebsiella. The experiment can be described thus: Compound was evaluated for the antibacterial activity against Klebsiella.8. Format: functional.
Experiment [17] relates to Staphylococcus aureus. The experiment can be described thus: Compound was evaluated for the antibacterial activity against methicillin-resistant Staphylococcus aureus (MRSA). The experiment is classed as functional.
The test system of experiment [18] is Proteus. The experiment can be described thus: Compound was evaluated for the antibacterial activity against Proteus. The experiment is classed as functional, Proteus sp.
Experiment [19] deals with Escherichia coli. The experiment is described as follows: Compound was evaluated for the antibacterial activity against Escherichia coli. The experiment is classed as functional.
In experiment [20] the test system is Enterobacter. The experiment is described as follows: Compound was evaluated for the antibacterial activity against Enterobacter. Format: functional.
The test system of experiment [21] is Staphylococcus aureus. The experiment is described as follows: Compound was evaluated for the antibacterial activity against methicillin-resistant coagulase-negative staphylococci (MRCNS). The experiment is classed as functional.
The test system of experiment [22] is Enterococcus. The experiment is described as follows: Compound was evaluated for the antibacterial activity against Enterococcus. The experiment is classed as functional.
In experiment [23] the test system is Serratia. The experiment can be described thus: Compound was evaluated for the antibacterial activity against Serratia. The experiment is classed as functional.
For experiment [24], the system named is Staphylococcus aureus. The experiment can be described thus: Compound was evaluated for the antibacterial activity against methicillin-sensitive Staphylococcus aureus (MSSA). The experiment is classed as functional.
Experiment [25] relates to Klebsiella. The experiment is described as follows: Compound was evaluated for the antibacterial activity against Klebsiella.8 as fold improvement in activity with respect to imipenem. Format: functional.

Values after ≈ are worked out from the molar mass of the structure shown.

In the case of `C[C@@H](O)[C@H]1C(=O)N2C(C(=O)[O-])=C(c3ccc4cc(C[n+]5ccc(N)cc5)ccc4c3)C[C@H]12`, in experiment [1], the MIC90 turned out to be 8 mg/L (≈ 18.6 µM). The Activity in experiment [2] came to 0.4; in experiment [3], 1.4; in experiment [5], 0.92; in [6], 77; in [7], 10; in experiment [8] it was 1.8. Besides, the Activity in experiment [9] is 0.26; in experiment [10] it was 0.45; in experiment [12], 0.02; in experiment [13], 18; in experiment [14], 2.7. For the same compound, the MIC50 in [4] worked out at 8 mg/L (≈ 18.6 µM); in experiment [11], 4 mg/L (≈ 9.31 µM).
In turn, `C[C@@H](O)[C@H]1C(=O)N2C(C(=O)O)=C(SCCNC=N)C[C@H]12` [IMIPENEM ANHYDROUS] had an MIC90 in [1] of 64 mg/L (≈ 214 µM). Besides, the MIC in experiment [15] was 0.36 mg/L (≈ 1.2 µM); in experiment [16], 0.29 mg/L (≈ 0.969 µM); in experiment [17], 33 mg/L (≈ 110 µM); in experiment [18], 0.69 mg/L (≈ 2.3 µM); in experiment [19] it was 0.19 mg/L (≈ 0.635 µM); in experiment [20] it was 0.18 mg/L (≈ 0.601 µM). In addition, the MIC in experiment [21] was 70 mg/L (≈ 234 µM); in experiment [22], 1.8 mg/L (≈ 6.01 µM); in experiment [23] it was 0.29 mg/L (≈ 0.969 µM); in [24] it was 0.01 mg/L (≈ 0.0334 µM). Moreover, the MIC50 in experiment [4] stood at 128 mg/L (≈ 428 µM); in experiment [11], 32 mg/L (≈ 107 µM). The Activity in [9] was 1.
In [1], `C[C@@H](O)[C@H]1C(=O)N2C(C(=O)[O-])=C(c3ccc4cccc(C[n+]5ccc(N)cc5)c4c3)C[C@H]12` displayed an MIC90 of 8 mg/L (≈ 18.6 µM). The Activity in experiment [25] is listed as 0.04; in experiment [3], 0.09; in [5], 0.03; in [6], 40; in experiment [7], 0.48; in experiment [8] it was 0.07. For the same compound, the Activity in experiment [9] was 0.01; in experiment [10], 0.15; in experiment [12], 0.01; in experiment [13], 20; in experiment [14] it was 2.4. Moreover, the values for the MIC50 in experiment [4] and in experiment [11] were 16 mg/L (≈ 37.3 µM) and 8 mg/L (≈ 18.6 µM), respectively.
